Laboratory results as given in patent US20070276034A1, “Compounds, compositions and methods for the treatment of synucleinopathies” (priority 2002, published 2007).
Where two headings read alike, the source gives them in different places.

How the values were obtained:
Assay type in all cases: biochemical
Aβ 1-42 fibrils = molecular target: T1, Aβ 1-42 fibrils (Homo sapiens, UniProt P05067); assay: Thioflavin T fluorometry - disruption of pre-formed Aβ 1-42 Alzheimer's fibrils; conditions: 3 days; for inhibition / % Inhibition Aβ (result ± S.D.): 25 μM pre-fibrillized Aβ 1-42, 37° C.; for inhibition: read-out: % Inhibition Aβ (result ± S.D.)
T1 construct: purchased Bachem Inc
In short: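 Pre-fibrillized Aβ1-42 (25 µM) incubated 3 days at 37 °C alone or with compound at Aβ:compound weight ratios 1:1 to 1:0.001. Remaining fibrils quantified by Thioflavin T fluorescence (ex 444/em 485 nm) in phosphate buffer pH 6.8, blank-subtracted for buffer or compound alone.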

monomeric Aβ 1-42 = molecular target: T2, monomeric Aβ 1-42 (Homo sapiens, UniProt P05067); assay: SDS-PAGE/Western blot of Aβ 1-42 after incubation with compounds; conditions: 25 μM pre-fibrillized Aβ 1-42, 37° C., 3 days, 0.2 μm filtrate, antibody 6E10
T2 construct: purchased Bachem Inc
Procedure: In this latter study, triplicate samples of pre-fibrillized Aβ 1-42 (25 μM) was incubated at 37° C. for 3 days, alone or in the presence of the compounds or EDTA. Five micrograms of each sample was then filtered through a 0.2 μm filter. Protein recovered from the filtrate was then loaded, and ran on a 10-20% Tris-Tricine SDS-PAGE, blotted to nitrocellulose and detected using an Aβ-antibody (clone 6E10; Senetek).

IAPP fibrils [1] = molecular target: T3, IAPP fibrils (Homo sapiens, UniProt P10997); assay: Thioflavin T fluorometry - disruption of type 2 diabetes IAPP fibrils; conditions: 3 days; for inhibition / % Inhibition IAPP (result ± S.D.): 25 μM pre-fibrillized IAPP, 37° C.; for inhibition: read-out: % Inhibition IAPP (result ± S.D.)
T3 construct: purchased Bachem Inc
T3 sequence (P10997 34-70 limits assumed): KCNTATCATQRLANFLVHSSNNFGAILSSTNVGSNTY
In short: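 Pre-fibrillized human IAPP (25 μM) incubated 3 days at 37 °C alone or with compound at IAPP:compound weight ratios of 1:1 to 1:0.001. Mixtures then mixed with Thioflavin T in phosphate buffer pH 6.8; fluorescence read at 485 nm (ex 444 nm) after blank subtraction.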

IAPP fibrils [2] = molecular target: T3, IAPP fibrils; assay: Congo red binding assay with IAPP fibrils; conditions: for % Inhibition IAPP (result ± S.D.), Congo red binding: 3-day incubation
In short: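 Congo red staining of washed 0.2 μm filters measured the aggregated IAPP retained after a 3-day co-incubation with compound or EDTA. Weight ratios IAPP:compound were 1:1, 1:0.1, 1:0.01 or 1:0.001; loss of color relative to compound-free IAPP was scored.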

NAC fibrils = molecular target: T4, NAC fibrils (Homo sapiens, UniProt P37840); assay: Thioflavin T fluorometry - disruption of Parkinson's disease NAC fibrils; conditions: 3 days; for % Inhibition NAC (result ± S.D.): 25 μM pre-fibrillized NAC, 37° C.
T4 construct: NAC is a 35-amino acid fragment of α-synuclein; purchased Bachem Inc
Procedure: In this assay, Thioflavin T binds specifically to NAC fibrils, and this binding produces a fluorescence enhancement at 485 nm that is directly proportional to the amount of NAC fibrils present. The higher the fluorescence, the greater the amount of NAC fibrils present (Naki et al, Lab. Invest. 65:104-110, 1991; Levine III, Protein Sci. 2:404-410, 1993; Amyloid: Int. J. Exp. Clin. Invest. 2:1-6, 1995).
In this study, 25 μM of pre-fibrillized NAC (Bachem Inc) was incubated at 37° C. for 3 days either alone or in the presence of dihydroxy synthetic analog compounds #1, 3, 23, 26, 52, 63, 66, 67, or EDTA (at NAC:test compound weight ratios of 1:1, 1:0.1, 1:0.01 or 1:0.001). Following 3-days of co-incubation, 50 βl of each incubation mixture was transferred into a 96-well microtiter plate containing 150 μl of distilled water and 50 μl of a Thioflavin T solution (i.e. 500 mM Thioflavin T in 250 mM phosphate buffer, pH 6.8). The fluorescence was read at 485 nm (444 nm excitation wavelength) using an ELISA plate fluorometer after subtraction with buffer alone or compound alone, as blank.

[3] = Aβ:test compound wt/wt ratio 1:0.001
[4] = Aβ:test compound wt/wt ratio 1:0.01
[5] = Aβ:test compound wt/wt ratio 1:0.1
[6] = Aβ:test compound wt/wt ratio 1:1
[7] = IAPP:test compound wt/wt ratio 1:0.001
[8] = IAPP:test compound wt/wt ratio 1:0.01
[9] = IAPP:test compound wt/wt ratio 1:0.1
[10] = IAPP:test compound wt/wt ratio 1:1
[11] = all concentrations tested (ratios 1:1 to 1:0.001)

T1 sequence (P05067 672-713): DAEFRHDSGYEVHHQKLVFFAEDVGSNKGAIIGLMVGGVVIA
T2 sequence (P05067 672-713): as above

O=C(Nc1ccc(O)c(O)c1)c1ccc(O)c(O)c1 [Compound 51, 3,4-dihydroxybenzoic acid 3,4-dihydroxyanilide]
inhibition (Aβ 1-42 fibrils; [3]): 29 ± 25.2% | inhibition (Aβ 1-42 fibrils; [4]): 55.3 ± 5.23% | inhibition (Aβ 1-42 fibrils; [5]): 94.9 ± 0.24% | inhibition (Aβ 1-42 fibrils; [6]): 99.4 ± 0.05% | detection of Aβ 1-42 monomers (~4 kilodalton band) on Western blot (monomeric Aβ 1-42): not detected | inhibition (IAPP fibrils [1]; [7]): 11.8 ± 6.45% | inhibition (IAPP fibrils [1]; [8]): 56.6 ± 1.69% | inhibition (IAPP fibrils [1]; [9]): 96.6 ± 1% | inhibition (IAPP fibrils [1]; [10]): 99.9 ± 0.11% | % Inhibition IAPP (result ± S.D.), Congo red binding (IAPP fibrils [2]; [7]): 1.6 ± 1.01% | % Inhibition IAPP (result ± S.D.), Congo red binding (IAPP fibrils [2]; [8]): 3.6 ± 2.59% | % Inhibition IAPP (result ± S.D.), Congo red binding (IAPP fibrils [2]; [9]): 27.5 ± 3.49% | % Inhibition IAPP (result ± S.D.), Congo red binding (IAPP fibrils [2]; [10]): 55.6 ± 1.48%

O=C(Nc1ccc(O)c(O)c1)Nc1ccc(O)c(O)c1 [Compound 76, 1,3-bis(3,4-dihydroxyphenyl)urea]
inhibition (Aβ 1-42 fibrils; [3]): 12.2 ± 5.98% | inhibition (Aβ 1-42 fibrils; [4]): 40.9 ± 3.76% | inhibition (Aβ 1-42 fibrils; [5]): 86.5 ± 1.18% | inhibition (Aβ 1-42 fibrils; [6]): 99.3 ± 1.35% | detection of Aβ 1-42 monomers (~4 kilodalton band) on Western blot (monomeric Aβ 1-42): not detected | inhibition (IAPP fibrils [1]; [7]): 9 ± 0.32% | inhibition (IAPP fibrils [1]; [8]): 41.5 ± 6.67% | inhibition (IAPP fibrils [1]; [9]): 87.5 ± 1.89% | inhibition (IAPP fibrils [1]; [10]): 99.6 ± 1.01% | % Inhibition IAPP (result ± S.D.), Congo red binding (IAPP fibrils [2]; [7]): 3.4 ± 1.07% | % Inhibition IAPP (result ± S.D.), Congo red binding (IAPP fibrils [2]; [8]): 14.2 ± 2.25% | % Inhibition IAPP (result ± S.D.), Congo red binding (IAPP fibrils [2]; [9]): 16.5 ± 2.60% | % Inhibition IAPP (result ± S.D.), Congo red binding (IAPP fibrils [2]; [10]): 53.9 ± 5.44%

O=C(O)CN(CCN(CC(=O)O)CC(=O)O)CC(=O)O [EDTA, reference compound]
% Inhibition Aβ (result ± S.D.) (Aβ 1-42 fibrils; [3]): 0.0 ± 3.01% | % Inhibition Aβ (result ± S.D.) (Aβ 1-42 fibrils; [4]): 0.0 ± 4.88% | % Inhibition Aβ (result ± S.D.) (Aβ 1-42 fibrils; [5]): 0.0 ± 7.12% | % Inhibition Aβ (result ± S.D.) (Aβ 1-42 fibrils; [6]): 11.3 ± 9.67% | disruption/disassembly of preformed Aβ 1-42 fibrils (in words) (Aβ 1-42 fibrils; [11]): no significant inhibition | detection of Aβ 1-42 monomers (~4 kilodalton band) on Western blot (monomeric Aβ 1-42): detected as a ˜4 kilodalton band | % Inhibition IAPP (result ± S.D.) (IAPP fibrils [1]; [7]): 4.2 ± 1.05% | % Inhibition IAPP (result ± S.D.) (IAPP fibrils [1]; [8]): 0.0 ± 5.23% | % Inhibition IAPP (result ± S.D.) (IAPP fibrils [1]; [9]): 0.1 ± 2.59% | % Inhibition IAPP (result ± S.D.) (IAPP fibrils [1]; [10]): 4.4 ± 9.23% | disruption/disassembly of pre-formed IAPP fibrils (in words) (IAPP fibrils [1]; [11]): no significant inhibition | % Inhibition IAPP (result ± S.D.), Congo red binding (IAPP fibrils [2]; [7]): 6.6 ± 2.27% | % Inhibition IAPP (result ± S.D.), Congo red binding (IAPP fibrils [2]; [8]): 3.6 ± 2.83% | % Inhibition IAPP (result ± S.D.), Congo red binding (IAPP fibrils [2]; [9]): 0.0 ± 1.91% | % Inhibition IAPP (result ± S.D.), Congo red binding (IAPP fibrils [2]; [10]): 0.0 ± 3.69% | inhibition of IAPP fibril binding to Congo red (in words) (IAPP fibrils [2]; all concentrations tested (ratios 1:1 to 1:0.001), 3 days): no significant inhibition | % Inhibition NAC (result ± S.D.) (NAC fibrils; NAC:test compound wt/wt ratio 1:0.001): 0.0 ± 11.6% | % Inhibition NAC (result ± S.D.) (NAC fibrils; NAC:test compound wt/wt ratio 1:0.01): 0.0 ± 10.87% | % Inhibition NAC (result ± S.D.) (NAC fibrils; NAC:test compound wt/wt ratio 1:0.1): 0.0 ± 5.87% | % Inhibition NAC (result ± S.D.) (NAC fibrils; NAC:test compound wt/wt ratio 1:1): 20.0 ± 11.8% | disruption/disassembly of pre-formed NAC fibrils (in words) (NAC fibrils; [11]): no significant inhibition
